14 compounds from patent publication US20100152188A1, “Novel Heterocyclic Compounds” (priority 2005, published 2010) can be followed below.

For series [1], the system named is HDAC. In words: HDAC inhibition. It is filed as biochemical. As to conditions: for HDAC Inhibition 1 μM: compound at 1 μM; for HDAC Inhibition 10 μM: compound at 10 μM.
Series [2] concerns NCIH460. In words: Anti-cancer screen (MTT), NCIH460. It is filed as cell-based. Conditions: Homo sapiens, NCI-H460, 48 hours with compound, tested at 0.01-100 µM. The method in brief:
(§1)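 Five-point dosing (0.01, 0.1, 1, 10, 100 µM) for 48 h, with triplicate wells and a separate zero-time plate. Viability is read by MTT at 570 nm and expressed as percent growth, from which GI50, TGI and LC50 are taken.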

The subject of series [3] is NCIH460, HCT116, MDAMB-231/U 251. In words: Anti-cancer screen, mean GI50 over the cell lines. The format is cell-based. As to conditions: in µM. The method in brief:
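Growth was scored by MTT absorbance at 570 nm relative to control wells and a pre-treatment T0 reading. Compounds were tested at five final concentrations (0.01–100 µM, triplicate) for 48 h on NCIH460, HCT116 and U251 cells, each plated at 5000 cells/well 24 h before dosing.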

Series [4] has as its system HCT116. The series is described as follows: Anti-cancer screen (MTT), HCT116. The format is cell-based. As to conditions: Homo sapiens, HCT-116, 48 hours with compound, tested at 0.01-100 µM. In short, it runs like this:
as §1

The subject of series [5] is MDAMB-231/U 251. The series is described as follows: Anti-cancer screen (MTT), MDAMB-231/U 251. It is filed as cell-based. As to conditions: for CC50: 48 h, read-out: MDAMB-231/U 251 LC50; for GI50 / IC (TGI): 48 hours with compound, MTT, tested at 0.01-100 µM. The method in brief: as §1

As to `O=C(NCc1ccc(C(=O)N2CCN(c3ccccn3)CC2)cc1)OCc1cccs1` [Example 71, 2-Thienylmethyl{4-[(4-pyridin-2-ylpiperazin-1-yl)carbonyl]benzyl}carbamate], the melting point was 129.3 to 130.3 °C. Moreover, in series [1], the “HDAC Inhibition 1 μM” value is recorded as 9.14 and the “HDAC Inhibition 10 μM” value was 7.67.
On to `O=C(NCc1ccc(C(=O)N2CCN(c3ncccn3)CC2)cc1)OCc1cccs1` [Example 72, 2-Thienylmethyl{4-[(4-pyrimidin-2-ylpiperazin-1-yl)carbonyl]benzyl}carbamate], for which the melting point was 143.6 to 144.6 °C. In series [1], the “HDAC Inhibition 1 μM” value was determined as 8.08 and the “HDAC Inhibition 10 μM” value was determined as 8.40.
Regarding `O=C(CCCNC(=O)Cc1csc(NC(=O)OCc2nc3ccccc3s2)n1)NO` [Example 91, 1,3-Benzothiazol-2-ylmethyl[4-(2-{[4-(hydroxyamino)-4-oxobutyl]amino}-2-oxoethyl)-1,3-thiazol-2-yl]carbamate], in series [1], the “HDAC Inhibition 1 μM” value came out at 10.73 and the “HDAC Inhibition 10 μM” value worked out at 25.05. In addition, in series [2], the GI50 was 35 µM, the IC (TGI) was over 100 µM and the LC50 is over 100 µM. In addition, the “Mean GI50” value in series [3] amounted to 35.7. Besides, in series [4], the 50% growth inhibitory concentration (GI50) came to 51 µM, the IC (TGI) is over 100 µM and the LC50 (concentration giving 50% net cell kill relative to T0) was over 100 µM. Also, in series [5], the CC50 was over 100 µM, the GI50 was 21 µM and the IC (TGI) worked out at 89 µM.
As for `O=C(CCCCNC(=O)Cc1csc(NC(=O)OCc2nc3ccccc3s2)n1)NO` [Example 93, 1,3-Benzothiazol-2-ylmethyl[4-(2-{[5-(hydroxyamino)-5-oxopentyl]amino}-2-oxoethyl)-1,3-thiazol-2-yl]carbamate], in series [1], the “HDAC Inhibition 1 μM” value was determined as 26.26 and the “HDAC Inhibition 10 μM” value is 76.23. In series [2], the GI50 is 50 µM, the IC (TGI) is over 100 µM and the LC50 is over 100 µM. The “Mean GI50” value in series [3] came out at 32.3. Moreover, in series [4], the GI50 was 40 µM, the IC (TGI) amounted to 88 µM and the LC50 (concentration giving 50% net cell kill relative to T0) was over 100 µM. Moreover, in series [5], the CC50 is over 100 µM, the concentration for 50% growth inhibition (GI50) is 7 µM and the IC (TGI) was determined as 55 µM.
On to `O=C(CCCNC(=O)Cc1csc(NC(=O)OCc2nccs2)n1)NO` [Example 95, 1,3-Thiazol-2-ylmethyl[4-(2-{[4-(hydroxyamino)-4-oxobutyl]amino}-2-oxoethyl)-1,3-thiazol-2-yl]carbamate], for which, in series [1], the “HDAC Inhibition 1 μM” value was −2.89 and the “HDAC Inhibition 10 μM” value stood at 4.19. Moreover, in series [2], the GI50 was found to be 93 µM, the IC (TGI) was over 100 µM and the LC50 is over 100 µM. Moreover, the “Mean GI50” value in series [3] is given as over 100. Also, in series [4], the GI50 is over 100 µM, the IC (TGI) was over 100 µM and the LC50 (concentration giving 50% net cell kill relative to T0) is over 100 µM. In series [5], the CC50 was over 100 µM, the GI50 is over 100 µM and the IC (TGI) was over 100 µM.
In the case of `O=C(CCCCCNC(=O)Cc1csc(NC(=O)OCc2nccs2)n1)NO` [Example 96, 1,3-Thiazol-2-ylmethyl[4-(2-{[6-(hydroxyamino)-6-oxohexyl]amino}-2-oxoethyl)-1,3-thiazol-2-yl]carbamate], in series [1], the “HDAC Inhibition 1 μM” value was determined as 52.41 and the “HDAC Inhibition 10 μM” value amounted to 86.63. In addition, in series [2], the GI50 was over 100 µM, the IC (TGI) was over 100 µM and the LC50 is over 100 µM. Further, in series [3], the “Mean GI50” value is reported as over 100. For the same compound, in series [4], the GI50 was over 100 µM, the IC (TGI) is over 100 µM and the LC50 (concentration giving 50% net cell kill relative to T0) is over 100 µM. Also, in series [5], the CC50 was over 100 µM, the GI50 was 70 µM and the IC (TGI) was over 100 µM.
On to `O=C(CCCNC(=O)Cc1csc(NC(=O)OCc2ccncc2)n1)NO` [Example 97, Pyridin-4-ylmethyl[4-(2-{[4-(hydroxyamino)-4-oxobutyl]amino}-2-oxoethyl)-1,3-thiazol-2-yl]carbamate], for which, in series [1], the “HDAC Inhibition 1 μM” value was 5.02 and the “HDAC Inhibition 10 μM” value is recorded as 5.80. For the same compound, in series [2], the GI50 is 100 µM, the IC (TGI) is over 100 µM and the LC50 was over 100 µM. The “Mean GI50” value in series [3] was over 100. Moreover, in series [4], the GI50 was over 100 µM, the IC (TGI) was over 100 µM and the LC50 (concentration giving 50% net cell kill relative to T0) is over 100 µM. Moreover, in series [5], the CC50 is over 100 µM, the GI50 was over 100 µM and the IC (TGI) was over 100 µM.
Regarding `O=C(NCc1ccc(C(=O)N2CCC[C@H]2C(=O)NO)cc1)OCc1cccs1` [Example 99, 2-Thienylmethyl[4-({(2S)-2-[(hydroxyamino)carbonyl]pyrrolidin-1-yl}carbonyl)benzyl]carbamate], the melting point fell in the range of 90.6 to 91.5 °C.
The compound `O=C(NCc1ccc(C(=O)N[C@@H](Cc2ccc(O)cc2)C(=O)NO)cc1)OCc1cccs1` [Example 100, 2-Thienylmethyl[4-({[2-(hydroxyamino)-1-(4-hydroxybenzyl)-2-oxoethyl]amino}carbonyl)benzyl]carbamate] gave a melting point of 162.6 to 163.4 °C. Also, in series [1], the “HDAC Inhibition 1 μM” value turned out to be 13.63 and the “HDAC Inhibition 10 μM” value was determined as 40.64.
For `O=C(Cc1csc(NC(=O)c2ccc(CNC(=O)OCc3cccs3)cc2)n1)NO` [Example 101, 2-Thienylmethyl{4-[({4-[2-(hydroxyamino)-2-oxoethyl]-1,3-thiazol-2-yl}amino)carbonyl]benzyl}carbamate], in series [1], the “HDAC Inhibition 1 μM” value came to 8.52 and the “HDAC Inhibition 10 μM” value came to 45.50. In series [2], the GI50 was over 100 µM, the IC (TGI) is over 100 µM and the LC50 is over 100 µM. Also, the “Mean GI50” value in series [3] was over 100. Moreover, in series [4], the GI50 was 14 µM, the IC (TGI) was over 100 µM and the LC50 (concentration giving 50% net cell kill relative to T0) is over 100 µM. Further, in series [5], the CC50 was over 100 µM, the GI50 was over 100 µM and the IC (TGI) was over 100 µM.
With `O=C(CCCCCNC(=O)c1ccc(CNC(=O)OCc2cccs2)cc1)NO` [Example 102, 2-Thienylmethyl[4-({[6-(hydroxyamino)-6-oxohexyl]amino}carbonyl)benzyl]carbamate], in series [1], the IC50 was 0.25 µM, the “HDAC Inhibition 1 μM” value turned out to be 79.08 and the “HDAC Inhibition 10 μM” value is 85.52. Further, in series [2], the GI50 is 5 µM, the IC (TGI) came to 9.5 µM and the LC50 is 100 µM. In addition, the “Mean GI50” value in series [3] came to 4.9. Also, in series [4], the GI50 was found to be 4.8 µM, the IC (TGI) was 10 µM and the LC50 (concentration giving 50% net cell kill relative to T0) is over 100 µM. Besides, in series [5], the CC50 worked out at 60 µM, the 50% growth inhibitory concentration (GI50) is 4.8 µM and the IC (TGI) was determined as 9.5 µM.
Consider `O=C(NCc1ccc(C(=O)Nc2ccccc2NC(=O)c2ccc3c(c2)OCO3)cc1)OCc1cccs1` [Example 106, 2-thienylmethyl(4-[({(2-{1,3-benzodioxol-5-ylcarbonyl}amino)-phenyl}amino)carbonyl]benzyl)carbamate], for which, in series [1], the “HDAC Inhibition 1 μM” value is reported as 2.1 and the “HDAC Inhibition 10 μM” value worked out at 7.2. Besides, in series [2], the GI50 was 0.44 µM, the IC (TGI) was 107 µM and the LC50 was over 100 µM. The “Mean GI50” value in series [3] was 2.8. Further, in series [4], the GI50 is over 100 µM, the IC (TGI) is over 100 µM and the LC50 (concentration giving 50% net cell kill relative to T0) was over 100 µM. Further, in series [5], the CC50 is over 100 µM, the GI50 stood at 5.2 µM and the IC (TGI) is over 100 µM.
As to `O=C(CSC(F)F)Nc1cccc(NC(=O)c2ccc(CNC(=O)OCc3cccs3)cc2)c1` [Example 108, 2-Thienylmethyl[4-({[3-({[(difluoromethyl)thio]acetyl}amino)phenyl]amino}carbonyl)benzyl]carbamate], in series [1], the “HDAC Inhibition 1 μM” value is −8.74 and the “HDAC Inhibition 10 μM” value is reported as −0.86. For the same compound, in series [2], the GI50 amounted to 9.5 µM, the IC (TGI) is over 100 µM and the LC50 was over 100 µM. Further, in series [3], the “Mean GI50” value was over 100. Also, in series [4], the GI50 turned out to be 100 µM, the IC (TGI) is over 100 µM and the LC50 (concentration giving 50% net cell kill relative to T0) is over 100 µM. In series [5], the CC50 is over 100 µM, the GI50 worked out at 5 µM and the IC (TGI) was 15 µM.
As for `N/C(=N/O)c1ccc(NC(=O)OCc2cccs2)cc1` [Example 110, 2-thienylmethyl{4-[(E)-amino(hydroxyimino)-methyl]-phenyl}-carbamate], in series [1], the “HDAC Inhibition 1 μM” value came to 17.50 and the “HDAC Inhibition 10 μM” value came out at 52.34. In addition, in series [2], the GI50 was over 100 µM, the IC (TGI) was over 100 µM and the LC50 is over 100 µM. The “Mean GI50” value in series [3] is given as over 100. Moreover, in series [4], the GI50 amounted to 80 µM, the IC (TGI) is over 100 µM and the LC50 (concentration giving 50% net cell kill relative to T0) was over 100 µM. In series [5], the CC50 was over 100 µM, the GI50 worked out at 10 µM and the IC (TGI) was over 100 µM.

As a reminder, the melting point is the temperature of the solid-liquid transition. Broadly, the GI50 is the concentration at which growth is held to half of that of the control. By LC50 is commonly meant the concentration lethal to half of the exposed cells or organisms. As usually defined, the IC50 is the concentration needed to halve the response being measured. Lower therefore signals higher potency.
